Test results: US6034236A, “Method for producing of phthalocyanine compound” (Nippon Shokubai Co., Ltd., priority 1997, dated 2000)

Legend:
[1] = Visible absorption spectrum (largest absorption wavelength, ε); type: physicochemical
[2] = Solubility in 2-ethoxyethanol

Question: Which results are given for “tetrakis(2-(2-methoxyethoxy)carbonyl-6-methylphenoxy)dodecafluorovanadyl phthalocyanine [Example 5]”?
Answer: Visible absorption spectrum, Thin film [1]: 732.8 nm; Largest absorption wavelength in 2-ethoxyethanol [1]: 710.4 nm; ε at largest absorption wavelength in 2-ethoxyethanol [1]: 1.32 × 10^5

Question: For “tetrakis(2-(2-tetrahydrofurfuryloxy)-carbonyl-6-phenylphenoxy)dodecafluorovanadyl phthalocyanine [Example 4]”, which “Visible absorption spectrum, Thin film” value [1] is on record?
Answer: 732.3 nm

Question: What about the “Largest absorption wavelength in 2-ethoxyethanol” value [1] of the same molecule?
Answer: 714.7 nm

Question: What about the “ε at largest absorption wavelength in 2-ethoxyethanol” value [1] of the same molecule?
Answer: 1.22 × 10^5

Question: Which “Largest absorption wavelength in 1-chloronaphthalene” value [1] does the source give for `[O]=[Ti+2].c1ccc2c(c1)-c1nc-2nc2[n-]c(nc3nc(nc4[n-]c(n1)c1ccccc41)-c1ccccc1-3)c1ccccc21` [Example 13, titanylphthalocyanine] here?
Answer: 710.5 nm

Question: What about the “ε at largest absorption wavelength in 1-chloronaphthalene” value [1] of the same molecule?
Answer: 1.33 × 10^5

Question: With “octakisphenylthiooctafluorovanadyl phthalocyanine [Example 10]” as the molecule, how does the “Largest absorption wavelength in toluene” value ([1]; in toluene) read?
Answer: 770 nm

Question: With `Fc1c(F)c(F)c2c(c1F)-c1nc-2nc2[n-]c(nc3nc(nc4[n-]c(n1)c1c(F)c(F)c(F)c(F)c41)-c1c(F)c(F)c(F)c(F)c1-3)c1c(F)c(F)c(F)c(F)c21.[O]=[V+2]` [Example 7, hexadecafluorovanadyl phthalocyanine] as the molecule, how does the “Largest absorption wavelength in 1-chloronaphthalene” value [1] read?
Answer: 710.2 nm

Question: What about the “ε at largest absorption wavelength in 1-chloronaphthalene” value [1] of the same molecule?
Answer: 1.89 × 10^5

Question: What about the “Largest absorption wavelength in 1-chloronaphthalene” value ([1]; listed as Example 8) of the same molecule?
Answer: 710.1 nm

Question: And the “ε at largest absorption wavelength in 1-chloronaphthalene” value ([1]; listed as Example 8)?
Answer: 1.77 × 10^5

Question: Which results are given for “tetrakis(2-(2-ethoxyethoxy) dodecafluorovanadyl phthalocyanine [Example 14]”?
Answer: Largest absorption wavelength in 2-ethoxyethanol [1]: 709.0 nm; ε at largest absorption wavelength in 2-ethoxyethanol [1]: 1.26 × 10^5

Question: For “tetrakis(2-(1,3-dibromo-2-propoxy)-carbonyl-6-phenylphenoxy)dodecafluorovanadyl phthalocyanine [Example 2]”, which “Visible absorption spectrum, Thin film” value [1] is on record?
Answer: 731.6 nm

Question: What about the “Largest absorption wavelength in 2-ethoxyethanol” value [1] of the same molecule?
Answer: 714.5 nm

Question: And the “ε at largest absorption wavelength in 2-ethoxyethanol” value [1]?
Answer: 1.75 × 10^5

Question: With `Clc1c(Cl)c(Cl)c2c(c1Cl)-c1nc-2nc2[n-]c(nc3nc(nc4[n-]c(n1)c1c(Cl)c(Cl)c(Cl)c(Cl)c41)-c1c(Cl)c(Cl)c(Cl)c(Cl)c1-3)c1c(Cl)c(Cl)c(Cl)c(Cl)c21.[O]=[V+2]` [Example 12, hexadecachlorovanadylphthalocyanine] as the molecule, how does the “Largest absorption wavelength in 1-chloronaphthalene” value [1] read?
Answer: 712.4 nm

Question: What about the “ε at largest absorption wavelength in 1-chloronaphthalene” value [1] of the same molecule?
Answer: 1.65 × 10^5

Question: What does the source list for “tetrakis(2-(2-propoxy)carbonyl-6-phenylphenoxy)dodecafluorovanadyl phthalocyanine [Example 1]”?
Answer: Visible absorption spectrum, Thin film [1]: 732.2 nm; Largest absorption wavelength in 2-ethoxyethanol [1]: 715.0 nm; ε at largest absorption wavelength in 2-ethoxyethanol [1]: 1.52 × 10^5

Question: Which results are given for “tetrakis(2-(2-methoxyethoxy)carbonyl-6-methylphenoxy)dodecachlorovanadyl phthalocyanine [Example 9]”?
Answer: Visible absorption spectrum, Thin film [1]: 732.0 nm; Largest absorption wavelength in 2-ethoxyethanol [1]: 712.5 nm; ε at largest absorption wavelength in 2-ethoxyethanol [1]: 1.10 × 10^5

Question: For “tetrakis(2-(2-methoxyethoxy)carbonyl-6-phenylphenoxy)dodecafluorovanadyl phthalocyanine [Example 3]”, which “Visible absorption spectrum, Thin film” value [1] is on record?
Answer: 730.6 nm

Question: And the “Largest absorption wavelength in 2-ethoxyethanol” value [1]?
Answer: 713.7 nm

Question: What about the “ε at largest absorption wavelength in 2-ethoxyethanol” value [1] of the same molecule?
Answer: 1.42 × 10^5

Question: Which “Visible absorption spectrum, Thin film” value [1] does the source give for “tetrakis(2-(2-ethoxyethoxy)carbonyl-6-methoxyphenoxy)dodecafluorovanadyl phthalocyanine [Example 6]” here?
Answer: 733.0 nm

Question: And the “Largest absorption wavelength in 2-ethoxyethanol” value [1]?
Answer: 715.2 nm

Question: And the “ε at largest absorption wavelength in 2-ethoxyethanol” value [1]?
Answer: 1.37 × 10^5

Question: What about the “Solubility in 2-ethoxyethanol” value [2] of the same molecule?
Answer: 13 wt. %

Question: Which “Largest absorption wavelength in acetone” value ([1]; in acetone) does the source give for “octaphenoxyoctafluorovanadyl phthalo-cyanine [Example 11]” here?
Answer: 720 nm
